{"source": "ChEMBL document CHEMBL5518181", "about": "“Studies of antibacterial activity (in vitro and in vivo) and mode of action for des-acyl tridecaptins (DATs)” (Eur J Med Chem, 2024)", "key": {"[1]": {"system": "Escherichia coli", "assay": "Antibacterial activity against Escherichia coli ATCC 25922 assessed as inhibition of bacterial growth incubated for 18 hrs in presence of 2 mM CaCl2", "assay_type": "functional, organism-based"}, "[2]": {"target": "Lipopolysaccharide (LPS)", "assay": "Binding affinity to Pseudomonas aeruginosa LPS assessed as dissociation constant by ITC analysis", "assay_type": "subcellular"}, "[3]": {"system": "Klebsiella aerogenes", "assay": "Antibacterial activity against Enterobacter aerogenes ATCC 13048 assessed as inhibition of bacterial growth incubated for 18 hrs", "assay_type": "functional", "conditions": "read-out: MIC100"}, "[4]": {"system": "Lipopolysaccharide (LPS)", "assay": "Binding affinity to Escherichia coli O55:B5 LPS assessed as dissociation constant by ITC analysis", "assay_type": "subcellular"}, "[5]": {"target": "T1, Cytochrome P450 1A2 (Homo sapiens, UniProt P05177)", "T1 sequence (P05177 whole entry)": "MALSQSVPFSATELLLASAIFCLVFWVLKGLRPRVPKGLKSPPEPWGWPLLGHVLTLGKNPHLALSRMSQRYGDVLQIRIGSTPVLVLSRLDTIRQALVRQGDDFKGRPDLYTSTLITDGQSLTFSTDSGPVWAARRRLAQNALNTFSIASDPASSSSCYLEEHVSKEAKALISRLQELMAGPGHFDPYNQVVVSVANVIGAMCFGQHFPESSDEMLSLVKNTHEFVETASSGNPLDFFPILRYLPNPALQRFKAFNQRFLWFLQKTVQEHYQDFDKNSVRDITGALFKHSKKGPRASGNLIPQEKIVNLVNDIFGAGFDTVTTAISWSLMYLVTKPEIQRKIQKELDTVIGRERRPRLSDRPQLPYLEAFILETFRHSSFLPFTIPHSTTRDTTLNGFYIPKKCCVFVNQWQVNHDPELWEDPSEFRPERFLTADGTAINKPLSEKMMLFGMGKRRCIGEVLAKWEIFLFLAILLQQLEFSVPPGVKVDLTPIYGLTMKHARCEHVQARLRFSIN", "assay": "Inhibition of CYP1A2 (unknown origin)", "assay_type": "ADME"}, "[6]": {"assay": "AUClast in Swiss mouse lung at 10 mg/kg, iv administered as single bolus dose and measured upto 24 hrs by LC-MS/MS analysis", "assay_type": "ADME, organism-based"}, "[7]": {"system": "Providencia stuartii", "assay": "Antibacterial activity against Providencia stuartii ATCC 25826 assessed as inhibition of bacterial growth incubated for 18 hrs", "assay_type": "functional", "conditions": "read-out: MIC100"}, "[8]": {"assay": "Clearance in mouse microsomes", "assay_type": "ADME, Microsome"}, "[9]": {"system": "Klebsiella pneumoniae", "assay": "Antibacterial activity against Klebsiella pneumoniae ATCC 13883 assessed as inhibition of bacterial growth incubated for 18 hrs in presence of 150 mM NaCl", "assay_type": "functional, organism-based"}, "[10]": {"system": "Klebsiella pneumoniae", "assay": "Antibacterial activity against Klebsiella pneumoniae ATCC 43816 infected in mouse urinary tract infection model assessed as reduction in bacterial burden in urine at <10 mg/kg, iv administered every 4 hrs and measured after 26 hrs", "assay_type": "functional, organism-based"}, "[11]": {"system": "Escherichia coli", "assay": "Antibacterial activity against Escherichia coli ATCC 25922 assessed as inhibition of bacterial growth incubated for 18 hrs in presence of 25 mM bicarbonate", "assay_type": "functional, organism-based"}, "[12]": {"assay": "Cmax in Swiss mouse plasma at 10 mg/kg, iv administered as single bolus dose and measured upto 24 hrs by LC-MS/MS analysis", "assay_type": "ADME, organism-based"}, "[13]": {"system": "Klebsiella pneumoniae", "assay": "Antibacterial activity against Klebsiella pneumoniae ATCC 13883 assessed as inhibition of bacterial growth incubated for 18 hrs in presence of 2 mM MgCl2", "assay_type": "functional, organism-based"}, "[14]": {"assay": "Hydrophobicity of compound assessed as %MeCN at peak elution by RP-HPLC analysis", "assay_type": "physicochemical"}, "[15]": {"target": "Cytochrome P450 3A4 (Homo sapiens, UniProt P08684)", "sequence (P08684 whole entry)": "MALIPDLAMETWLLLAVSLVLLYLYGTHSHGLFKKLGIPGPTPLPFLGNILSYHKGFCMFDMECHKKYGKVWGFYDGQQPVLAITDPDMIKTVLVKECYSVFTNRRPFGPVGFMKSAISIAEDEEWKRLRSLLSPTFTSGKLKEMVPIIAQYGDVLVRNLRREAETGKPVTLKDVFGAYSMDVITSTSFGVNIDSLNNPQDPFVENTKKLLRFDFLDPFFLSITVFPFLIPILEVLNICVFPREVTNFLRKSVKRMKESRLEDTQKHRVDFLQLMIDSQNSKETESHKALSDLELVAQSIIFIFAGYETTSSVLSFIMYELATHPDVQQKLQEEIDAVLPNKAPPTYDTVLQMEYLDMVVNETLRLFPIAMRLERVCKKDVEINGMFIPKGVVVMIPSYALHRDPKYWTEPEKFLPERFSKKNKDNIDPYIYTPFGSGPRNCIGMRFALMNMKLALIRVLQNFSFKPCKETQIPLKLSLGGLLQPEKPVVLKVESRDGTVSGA", "assay": "Inhibition of CYP3A4 (unknown origin)", "assay_type": "ADME"}, "[16]": {"system": "Klebsiella pneumoniae", "assay": "Antibacterial activity against Klebsiella pneumoniae ATCC BAA-2470 expressing NDM-1 assessed as inhibition of bacterial growth incubated for 18 hrs", "assay_type": "functional", "conditions": "read-out: MIC100"}, "[17]": {"assay": "Observed clearance in Swiss mouse at 10 mg/kg, iv administered as single bolus dose and measured upto 24 hrs by LC-MS/MS analysis", "assay_type": "ADME, organism-based", "conditions": "in vivo"}, "[18]": {"system": "Escherichia coli", "assay": "Antibacterial activity against Escherichia coli ATCC 25922 assessed as inhibition of bacterial growth incubated for 18 hrs in presence of 5 mM KCl", "assay_type": "functional, organism-based"}, "[19]": {"assay": "Chemical stability of compound in mercaptoethanol", "assay_type": "physicochemical"}, "[20]": {"system": "Cell membrane", "assay": "Induction of membrane permeabilization in Klebsiella pneumoniae ATCC 13883 at 32 to 64 ug/ml measured after 30 mins by Sytox Green labelling based microscopic analysis", "assay_type": "cell membranes", "conditions": "dose 32-64 µg/ml"}, "[21]": {"system": "Pseudomonas aeruginosa", "assay": "Antibacterial activity against wild-type Pseudomonas aeruginosa PAO1 assessed as inhibition of bacterial growth incubated for 24 hrs", "assay_type": "functional", "conditions": "read-out: MIC100"}, "[22]": {"system": "Klebsiella pneumoniae", "assay": "Antibacterial activity against Klebsiella pneumoniae ATCC 43816 infected in mouse urinary tract infection model assessed as reduction in bacterial burden in bladder at <10 mg/kg, iv administered every 4 hrs and measured after 26 hrs", "assay_type": "functional, organism-based"}, "[23]": {"target": "T2, Cytochrome P450 2B6 (Homo sapiens, UniProt P20813)", "T2 sequence (P20813 whole entry)": "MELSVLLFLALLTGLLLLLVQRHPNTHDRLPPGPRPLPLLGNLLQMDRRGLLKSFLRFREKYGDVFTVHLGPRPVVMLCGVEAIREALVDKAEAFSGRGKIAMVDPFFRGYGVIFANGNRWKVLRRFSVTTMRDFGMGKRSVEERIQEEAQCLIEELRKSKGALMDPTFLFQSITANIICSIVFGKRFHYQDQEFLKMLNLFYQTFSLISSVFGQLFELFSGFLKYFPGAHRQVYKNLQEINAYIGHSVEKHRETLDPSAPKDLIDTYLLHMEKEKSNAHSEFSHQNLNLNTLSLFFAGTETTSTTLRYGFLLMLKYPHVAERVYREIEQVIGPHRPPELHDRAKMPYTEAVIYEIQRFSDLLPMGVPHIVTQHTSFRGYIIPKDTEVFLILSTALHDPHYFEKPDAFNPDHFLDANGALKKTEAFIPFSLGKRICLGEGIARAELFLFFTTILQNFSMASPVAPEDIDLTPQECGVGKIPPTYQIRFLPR", "assay": "Inhibition of CYP2B6 (unknown origin)", "assay_type": "ADME"}, "[24]": {"system": "Escherichia coli", "assay": "Antibacterial activity against Escherichia coli Swiss 9 harboring mcr-1 gene assessed as inhibition of bacterial growth incubated for 18 hrs", "assay_type": "functional", "conditions": "read-out: MIC100"}, "[25]": {"system": "Staphylococcus aureus", "assay": "Antibacterial activity against […] assessed as inhibition of bacterial growth incubated for 18 hrs", "assay_type": "functional", "conditions": "ATCC 29213, read-out: MIC100"}, "[26]": {"system": "Klebsiella pneumoniae", "assay": "Antibacterial activity against Klebsiella pneumoniae ATCC 13883 assessed as inhibition of bacterial growth incubated for 18 hrs in presence of 2 mM CaCl2", "assay_type": "functional, organism-based"}, "[27]": {"system": "Acinetobacter baumannii", "assay": "Antibacterial activity against wild-type Acinetobacter baumannii ATCC 19606 assessed as inhibition of bacterial growth incubated for 20 hrs", "assay_type": "functional", "conditions": "read-out: MIC100"}, "[28]": {"assay": "AUClast in Swiss mouse liver at 10 mg/kg, iv administered as single bolus dose and measured upto 24 hrs by LC-MS/MS analysis", "assay_type": "ADME, organism-based"}, "[29]": {"assay": "Chemical stability of compound in benzylamine", "assay_type": "physicochemical"}, "[30]": {"system": "Proteus mirabilis", "assay": "Antibacterial activity against Proteus mirabilis ATCC 25933 assessed as inhibition of bacterial growth incubated for 18 hrs", "assay_type": "functional", "conditions": "read-out: MIC100"}, "[31]": {"assay": "Chemical stability of compound at pH 2", "assay_type": "physicochemical", "conditions": "buffer"}, "[32]": {"assay": "Aqueous solubility of compound at pH 4.6", "assay_type": "physicochemical"}, "[33]": {"assay": "Toxicity in naive mouse at 5 to 15 mg/kg, iv administered as single dose every 4 hrs for 24 hrs", "assay_type": "organism-based", "conditions": "in vivo, dose 5-15 mg/kg"}}, "note": "Calls of active or inactive are those of the source. No cut-off for these calls is given here."}
{"smiles": "CC[C@H](C)[C@@H](NC(=O)[C@@H](NC(=O)[C@H](CCC(=O)O)NC(=O)[C@H](Cc1ccccc1)NC(=O)[C@@H](CCN)NC(=O)[C@H](CCN)NC(=O)[C@H](CO)NC(=O)[C@@H](Cc1c[nH]c2ccccc12)NC(=O)[C@@H](CO)NC(=O)CNC(=O)[C@@H](CCN)NC(=O)[C@H](NC(=O)[C@H](C)N)C(C)C)C(C)C)C(=O)N[C@@H](C)C(=O)O", "values": [{"measurement": "Activity", "setting": "[1]", "result": "Active"}, {"measurement": "Kd", "setting": "[2]", "result": 42.8, "unit": "µM"}, {"measurement": "MIC", "setting": "[3]", "result": 8, "unit": "µg/mL"}, {"measurement": "Kd", "setting": "[4]", "result": 35.7, "unit": "µM"}, {"measurement": "inhibition (INH)", "setting": "[5]", "result": "Not Active"}, {"measurement": "AUC(0-t) at 24 h", "setting": "[6]", "result": 12100, "unit": "ng·h/mL"}, {"measurement": "MIC", "setting": "[7]", "result": "> 32", "unit": "µg/mL"}, {"measurement": "microsomal CLint", "setting": "[8]", "result": 2, "unit": "µL/min/mg"}, {"measurement": "Activity", "setting": "[9]", "result": "Active"}, {"measurement": "Activity", "setting": "[10]", "result": "inactive"}, {"measurement": "Activity", "setting": "[11]", "result": "Active"}, {"measurement": "Cmax", "setting": "[12]", "result": 166, "unit": "µg/mL"}, {"measurement": "Activity", "setting": "[13]", "result": "Active"}, {"measurement": "MeCN percentage at peak elution", "setting": "[14]", "result": 40.3, "unit": "%"}, {"measurement": "inhibition (INH)", "setting": "[15]", "result": "Not Active"}, {"measurement": "MIC", "setting": "[16]", "result": 8, "unit": "µg/mL"}, {"measurement": "clearance", "setting": "[17]", "result": 2, "unit": "mL/min/kg"}, {"measurement": "Activity", "setting": "[18]", "result": "Active"}, {"measurement": "Stability", "setting": "[19]", "result": "Stable"}, {"measurement": "Activity", "setting": "[20]", "result": "Active"}, {"measurement": "MIC", "setting": "[21]", "result": 64, "unit": "µg/mL"}, {"measurement": "Activity", "setting": "[22]", "result": "Active"}, {"measurement": "inhibition (INH)", "setting": "[23]", "result": "Not Active"}, {"measurement": "MIC", "setting": "[24]", "result": 8, "unit": "µg/mL"}, {"measurement": "MIC", "setting": "[25]", "result": "> 64", "unit": "µg/mL"}, {"measurement": "Activity", "setting": "[26]", "result": "Active"}, {"measurement": "MIC", "setting": "[27]", "result": 32, "unit": "µg/mL"}, {"measurement": "AUC(0-t) at 24 h", "setting": "[28]", "result": 3020, "unit": "ng·h/mL"}, {"measurement": "Stability", "setting": "[29]", "result": "Stable"}, {"measurement": "MIC", "setting": "[30]", "result": "> 32", "unit": "µg/mL"}, {"measurement": "Stability", "setting": "[31]", "result": "Stable"}, {"measurement": "solubility", "setting": "[32]", "result": "> 1000", "unit": "µg/mL"}, {"measurement": "Activity", "setting": "[33]", "result": "Non-Toxic"}]}
